Where two headings read alike, the source gives them in different places.
Biological target: T1, recombinant human Syk (GST-hSyk fusion protein) (Homo sapiens, UniProt P43405)
T1 construct: purchased Carna Biosciences 08-176
Assay: Homogeneous Time-Resolved Fluorescence (HTRF) assay for the recombinant human Syk enzyme
Format: biochemical
Conditions: 10-dose titration, 25 μM ATP
Method in brief: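 IC50 came from a four-parameter fit over ten doses, 10 μM to 0.508 nM, with HTRF read-out (Eu-anti-pTyr antibody, SA-APC, EDTA stop, 30 min). The enzyme, 5 pM GST-hSyk, met compound for 10 min, then phosphorylated 250 nM biotin-peptide with 25 μM ATP and 5 mM Mg for 45 min at room temperature, pH 7.5.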

[1] = IC50 class, read-out: rhSYK Activity

| IC50 [1] | IC50 (read-out: rhSYK IC50) | Structure (SMILES) |
| --- | --- | --- |
| ≤ 100 nM | – | Cc1cc(Nc2nccc(C(C)(F)F)n2)cc(-c2cnn(CC(C)(O)C(C)(C)O)c2)c1 (stereo not shown) [Example 22.5, 1-[4-(3-{[4-(1,1-difluoroethyl)pyrimidin-2-yl]amino}-5-methylphenyl)-1H-pyrazol-1-yl]-2,3-dimethylbutane-2,3-diol] |
| ≤ 100 nM | 1.7 nM | Cc1cc(Nc2nccc(C(F)F)n2)cc(-c2cnn(C3CCCC(C)(O)C3O)c2)c1 (stereo not shown) [Example 22.6, 3-[4-(3-{[4-(difluoromethyl)pyrimidin-2-yl]amino}-5-methylphenyl)-1H-pyrazol-1-yl]-1-methylcyclohexane-1,2-diol] |
| ≤ 100 nM | 2.6 nM | Cc1cc(Nc2nccc(C(F)F)n2)cc(-c2cnn(C3CCC(C)(C)C(O)C3O)c2)c1 (stereo not shown) [Example 22.7, 6-[4-(3-{[4-(difluoromethyl)pyrimidin-2-yl]amino}-5-methylphenyl)-1H-pyrazol-1-yl]-3,3-dimethylcyclohexane-1,2-diol] |
| ≤ 100 nM | 5.9 nM | Cc1cc(Nc2nccc(C(F)F)n2)cc(-c2cnn(C3CCC(C)(C)C(O)C3(C)O)c2)c1 (stereo not shown) [Example 22.8, 6-[4-(3-{[4-(difluoromethyl)pyrimidin-2-yl]amino}-5-methylphenyl)-1H-pyrazol-1-yl]-1,3,3-trimethylcyclohexane-1,2-diol] |
| ≤ 100 nM | 1.1 nM | Cc1cc(Nc2nccc(C(F)F)n2)cc(-c2cnn(C3CC(C)(C)CC(C)(O)C3O)c2)c1 (stereo not shown) [Example 22.9, 3-[4-(3-{[4-(difluoromethyl)pyrimidin-2-yl]amino}-5-methylphenyl)-1H-pyrazol-1-yl]-1,5,5-trimethylcyclohexane-1,2-diol] |
| ≤ 100 nM | 6.7 nM | Cc1cc(Nc2nccc(C(F)F)n2)cc(-c2cnn(C3CC(C)(C)CC(C)(O)C3O)c2)c1 (stereo not shown) [Example 22.10] |
| ≤ 100 nM | 2.5 nM | Cc1cc(Nc2nccc(C(F)F)n2)cc(-c2cnn(C3CCCC(C)(O)C3(C)O)c2)c1 (stereo not shown) [Example 22.11, 3-[4-(3-{[4-(difluoromethyl)pyrimidin-2-yl]amino}-5-methylphenyl)-1H-pyrazol-1-yl]-1,2-dimethylcyclohexane-1,2-diol] |
| ≤ 100 nM | 7.4 nM | Cc1cc(Nc2nccc(C(F)F)n2)cc(-c2cnn(C3CCCC(C)(O)C3(C)O)c2)c1 (stereo not shown) [Example 22.12, 3-[4-(3-{[4-(difluoromethyl)pyrimidin-2-yl]amino}-5-methylphenyl)-1H-pyrazol-1-yl]-1,2-dimethylcyclohexane-1,2-diol] |
| ≤ 100 nM | 3.6 nM | Cc1cc(Nc2nccc(C(F)F)n2)cc(-c2cnn(C3CCC(O)C3(C)O)c2)c1 (stereo not shown) [Example 22.13, 5-[4-(3-{[4-(difluoromethyl)pyrimidin-2-yl]amino}-5-methylphenyl)-1H-pyrazol-1-yl]-1-methylcyclopentane-1,2-diol] |
| ≤ 100 nM | 5.8 nM | Cc1cc(Nc2nccc(C(F)F)n2)cc(-c2cnn(C3CCC(O)C3(C)O)c2)c1 (stereo not shown) [Example 22.14, 5-[4-(3-{[4-(difluoromethyl)pyrimidin-2-yl]amino}-5-methylphenyl)-1H-pyrazol-1-yl]-1-methylcyclopentane-1,2-diol] |
| ≤ 100 nM | 2.6 nM | Cc1cc(Nc2nccc(C(F)F)n2)cc(-c2cnn(C3CCCCC(O)C3O)c2)c1 (stereo not shown) [Example 22.15, 3-[4-(3-{[4-(difluoromethyl)pyrimidin-2-yl]amino}-5-methylphenyl)-1H-pyrazol-1-yl]cycloheptane-1,2-diol] |
| ≤ 100 nM | – | Cc1cc(Nc2nccc(C(F)F)n2)cc(-c2cnn(CC3OC(=O)NC3C3CC3)c2)c1 (stereo not shown) [Example 23.17, 4-cyclopropyl-5-{[4-(3-{[4-(difluoromethyl)pyrimidin-2-yl]amino}-5-methylphenyl)-1H-pyrazol-1-yl]methyl}-1,3-oxazolidin-2-one] |
| ≤ 100 nM | 25.2 nM | Cc1cc(Nc2nccc(C(F)F)n2)cc(-c2cnn(CCNC(=O)C3CC3)c2)c1 [Example 26.1, N-(2-(4-(3-((4-(Difluoromethyl)pyrimidin-2-yl)amino)-5-methylphenyl)-1H-pyrazol-1-yl)ethyl)cyclopropanecarboxamide] |
| ≤ 100 nM | – | Cc1cc(Nc2nccc(C(F)F)n2)cc(-c2cnn(CC(C)(C)NC(=O)C3CC3)c2)c1 [Example 26.2, N-{2-[4-(3-{[4-(difluoromethyl)pyrimidin-2-yl]amino}-5-methylphenyl)-1H-pyrazol-1-yl]-1,1-dimethylethyl}cyclopropanecarboxamide] |
| ≤ 100 nM | – | COCC(=O)NC(C)(C)Cn1cc(-c2cc(C)cc(Nc3nccc(C(F)F)n3)c2)cn1 [Example 26.3, N-{2-[4-(3-{[4-(difluoromethyl)pyrimidin-2-yl]amino}-5-methylphenyl)-1H-pyrazol-1-yl]-1,1-dimethylethyl}-2-methoxyacetamide] |
| ≤ 100 nM | – | Cc1cc(Nc2nccc(C(F)F)n2)cc(-c2cnn(CCNC(=O)CC#N)c2)c1 [Example 26.4, 2-cyano-N-{2-[4-(3-{[4-(difluoromethyl)pyrimidin-2-yl]amino}-5-methylphenyl)-1H-pyrazol-1-yl]ethyl}acetamide] |

| IC50 [1] | IC50 (read-out: rhSYK IC50) | Structure (SMILES) |
| --- | --- | --- |
| ≤ 100 nM | – | COCC(=O)NCCn1cc(-c2cc(C)cc(Nc3nccc(C(F)F)n3)c2)cn1 [Example 26.5, N-{2-[4-(3-{[4-(difluoromethyl)pyrimidin-2-yl]amino}-5-methylphenyl)-1H-pyrazol-1-yl]ethyl}-2-methoxyacetamide] |
| ≤ 100 nM | 8.6 nM | Cc1cc(Nc2nccc(C(F)F)n2)cc(-c2cnn(CCNS(C)(=O)=O)c2)c1 [Example 27.1, N-(2-(4-(3-((4-(Difluoromethyl)pyrimidin-2-yl)amino)-5-methylphenyl)-1H-pyrazol-1-yl)ethyl)methanesulfonamide] |
| ≤ 100 nM | – | COC(=O)NCCn1cc(-c2cc(C)cc(Nc3nccc(C(F)F)n3)c2)cn1 [Example 27.2, methyl {2-[4-(3-{[4-(difluoromethyl)pyrimidin-2-yl]amino}-5-methylphenyl)-1H-pyrazol-1-yl]ethyl}carbamate] |
| ≤ 100 nM | – | COCCOC(=O)NCCn1cc(-c2cc(C)cc(Nc3nccc(C(F)F)n3)c2)cn1 [Example 27.3, 2-methoxyethyl {2-[4-(3-{[4-(difluoromethyl)pyrimidin-2-yl]amino}-5-methylphenyl)-1H-pyrazol-1-yl]ethyl}carbamate] |
| ≤ 100 nM | – | Cc1cc(Nc2nccc(C(F)F)n2)cc(-c2cnn(CC(C)(C)NS(C)(=O)=O)c2)c1 [Example 27.4, N-{2-[4-(3-{[4-(difluoromethyl)pyrimidin-2-yl]amino}-5-methylphenyl)-1H-pyrazol-1-yl]-1,1-dimethylethyl}methanesulfonamide] |
| ≤ 100 nM | – | Cc1cc(Nc2nccc(C(F)F)n2)cc(-c2cnn(CC(C)(C)NS(=O)(=O)C3CC3)c2)c1 [Example 27.5, N-{2-[4-(3-{[4-(difluoromethyl)pyrimidin-2-yl]amino}-5-methylphenyl)-1H-pyrazol-1-yl]-1,1-dimethylethyl}cyclopropanesulfonamide] |
| ≤ 100 nM | – | Cc1cc(Nc2nccc(C(F)F)n2)cc(-c2cnn(CC(C)(C)NS(=O)(=O)N3CCOCC3)c2)c1 [Example 27.6, N-{2-[4-(3-{[4-(difluoromethyl)pyrimidin-2-yl]amino}-5-methylphenyl)-1H-pyrazol-1-yl]-1,1-dimethylethyl}morpholine-4-sulfonamide] |
| ≤ 100 nM | – | Cc1cc(Nc2nccc(C(F)F)n2)cc(-c2cnn(CC(C)(C)NC(=O)NC(C)(C)C)c2)c1 [Example 27.7, 1-tert-butyl-3-{2-[4-(3-{[4-(difluoromethyl)pyrimidin-2-yl]amino}-5-methylphenyl)-1H-pyrazol-1-yl]-1,1-dimethylethyl}urea] |
| ≤ 100 nM | – | CCNC(=O)NC(C)(C)Cn1cc(-c2cc(C)cc(Nc3nccc(C(F)F)n3)c2)cn1 [Example 27.8, 1-{2-[4-(3-{[4-(difluoromethyl)pyrimidin-2-yl]amino}-5-methylphenyl)-1H-pyrazol-1-yl]-1,1-dimethylethyl}-3-ethylurea] |
| ≤ 100 nM | – | Cc1cc(Nc2nccc(C(F)F)n2)cc(-c2cnn(CC(C)(C)NC(=O)NCC3CCOCC3)c2)c1 [Example 27.9, 1-{2-[4-(3-{[4-(difluoromethyl)pyrimidin-2-yl]amino}-5-methylphenyl)-1H-pyrazol-1-yl]-1,1-dimethylethyl}-3-(tetrahydro-2H-pyran-4-ylmethyl)urea] |
| ≤ 100 nM | – | Cc1cc(Nc2nccc(C(F)F)n2)cc(-c2cnn(CC(C)(C)NC(=O)OCCF)c2)c1 [Example 27.10, 2-fluoroethyl {2-[4-(3-{[4-(difluoromethyl)pyrimidin-2-yl]amino}-5-methylphenyl)-1H-pyrazol-1-yl]-1,1-dimethylethyl}carbamate] |
| ≤ 100 nM | – | COC(=O)NC(C)(C)Cn1cc(-c2cc(C)cc(Nc3nccc(C(F)F)n3)c2)cn1 [Example 27.11, methyl {2-[4-(3-{[4-(difluoromethyl)pyrimidin-2-yl]amino}-5-methylphenyl)-1H-pyrazol-1-yl]-1,1-dimethylethyl}carbamate] |
| ≤ 100 nM | – | COCCOC(=O)NC(C)(C)Cn1cc(-c2cc(C)cc(Nc3nccc(C(F)F)n3)c2)cn1 [Example 27.12, 2-methoxyethyl {2-[4-(3-{[4-(difluoromethyl)pyrimidin-2-yl]amino}-5-methylphenyl)-1H-pyrazol-1-yl]-1,1-dimethylethyl}carbamate] |
| ≤ 100 nM | – | Cc1cc(Nc2nccc(C(F)F)n2)cc(-c2cnn(CCNS(=O)(=O)C3CC3)c2)c1 [Example 27.13, N-{2-[4-(3-{[4-(difluoromethyl)pyrimidin-2-yl]amino}-5-methylphenyl)-1H-pyrazol-1-yl]ethyl}cyclopropanesulfonamide] |
| ≤ 100 nM | – | Cc1cc(Nc2nccc(C(F)F)n2)cc(-c2cnn(CCNS(=O)(=O)N3CCOCC3)c2)c1 [Example 27.14, N-{2-[4-(3-{[4-(difluoromethyl)pyrimidin-2-yl]amino}-5-methylphenyl)-1H-pyrazol-1-yl]ethyl}morpholine-4-sulfonamide] |
